Results: patent US20090203716A1, “Pyrimidine low molecular weight ligands for modulating hormone receptors” (The Government of the United States of America as …, priority 2006, published 2009)

Assays:
human LHCG receptor = target: T1, human LHCG receptor (Homo sapiens, UniProt P22888); assay: intracellular cAMP accumulation, agonism at LHCGR stably expressed in HEK EM 293 cells; assay type: cell-based
T1 construct: expressed in transfected cells
Procedure: (§1) With reference to Table 1, exemplary disclosed compounds were evaluated against human TSH receptor and human LHCG receptor that were stably expressed in HEK 293 EM cells as previously described by Libert et al. (Biochem. Biophys. Res. Commun. 1989, 165, 1250-1255); and by Schulz et al. (Mol. Endocrinol. 1999, 13, 181-190). Cell surface expression of TSH receptor and LHCG receptor were determined via FACS analysis (Kleinau, G.; Jäschke, H.; Neumann, S.; Lättig, S.; Paschke, R.; Krause, G. J. Biol. Chem. 2004, 279, 51590-51600).
Following aspiration of the medium after incubation with compounds, cells were lysed using lysis buffer 1 of the cAMP Biotrak Enzymeimmunoassay (EIA) System (Amersham Biosciences). The cAMP content of the cell lysate was determined using the manufacturer's protocol. […] The potency (EC50) was obtained from dose response curves (0-100 μM compound) by data analysis with GraphPad Prism 4 for Windows. […] The data are presented as mean±SEM of two independent experiments, each performed in duplicate.
(§2) Transiently transfected cells were cultured for 48 hours before the cAMP assay. HEK-EM 293 cells stably expressing TSHR, LHCGR or FSHR were seeded into 24-well plates with a density of 2.2×10^5 cells/well 24 hours before the cAMP assay. After removal of growth medium, cells were incubated for 1 hour in HBSS (Cellgro) with 10 mM HEPES (Cellgro) containing 1 mM 3-isobutyl-1-methylxanthine (IBMX) (Sigma) and the ligand of interest in a humidified 5% CO2 incubator at 37° C. The intracellular cAMP content was determined with the cAMP Biotrak Enzymeimmunoassay (EIA) System (GE Healthcare). Data were analyzed using GraphPad Prism 4 for Windows. Receptor expression was measured as described in Jaschke et al., J Biol Chem 281:9841-9844.

human TSH receptor = target: T2, human TSH receptor (Homo sapiens, UniProt P16473); assay: intracellular cAMP accumulation, agonism at TSHR stably expressed in HEK EM 293 cells; assay type: cell-based
T2 construct: expressed in transfected cells
Procedure: as §1, with “51590-51600). Agonism of compounds 3-20 were determined via measurement of intracellular cyclic AMP accumulation. […] For example, […] certain compounds disclosed herein exerted no discernible effect on the FSH receptor.” for “51590-51600).”
Cells were cultured for 48 h in 24-well plates before incubation for 1 h in serum-free DMEM containing 1 mM 3-isobutyl-1-methylxanthine (IBMX) (SIGMA) and bovine TSH (1.8 μM) (SIGMA) or human LH (1000 ng/ml) (Dr. A. Parlow, NIDDK National Hormone and Pituitary Program) or compounds 3-19 (0-100 μM) in a humidified 5% CO2 incubator. Following aspiration of the medium after incubation with compounds, cells were lysed using lysis buffer 1 of the cAMP Biotrak Enzymeimmunoassay (EIA) System (Amersham Biosciences). The cAMP content of the cell lysate was determined using the manufacturer's protocol. The efficacy of receptor activation by small molecule modulators is expressed as % of maximum response of LHCG receptor or TSH receptor to LH or TSH, respectively. The potency (EC50) was obtained from dose response curves (0-100 μM compound) by data analysis with GraphPad Prism 4 for Windows. With reference to FIG. 1, intracellular cAMP production was determined in response to 100 μM of each compound and is expressed as % of maximum response of TSHR/LHCGR to TSH (100 mU/ml)/LH (1000 ng/ml). The data are presented as mean±SEM of two independent experiments, each performed in duplicate.
as §2

TSHR [1] = target: T3, TSHR (Homo sapiens, UniProt P16473); assay: inhibition of TSH-mediated cAMP response in HEK-EM 293 cells stably expressing TSHR; assay type: cell-based; set-up: expressed in transfected cells
Procedure: as §2
The TSH-mediated cAMP response of TSHR was inhibited by a maximum of 70.8±5.5% at 30 μM compound 52. […] Compound 52 has no activity at FSHR.
To exclude the possibility that compound 52 might be acting independently of TSHR by building aggregates with TSH, thereby inhibiting the TSH-induced response, tests were conducted for a possible aggregation between these two ligands. Compound 52 and TSH were preincubated for up to 15 minutes before addition to HEK-EM 293 cells stably expressing TSHR. […] There was no difference in the antagonistic effect whether TSH and compound 52 were preincubated together or not (data not shown) thereby excluding the possibility that its effect was caused by aggregation with TSH.

LHCG receptor = LHCG receptor (Mus musculus, UniProt P30730); settings: ovulation induction model; cited from earlier work
TSHR mutant M9 = assay: cAMP production in HEK-EM 293 cells transiently expressing TSHR mutant M9; assay type: cell-based, human
Procedure: HEK-EM 293 cells were grown in Dulbecco's modified Eagle's Medium (DMEM) supplemented with 10% fetal bovine serum, 100 units/ml penicillin and 10 μg/ml streptomycin (Life Technologies Inc.) at 37° C. in a humidified 5% CO2 incubator. Cells were transiently transfected with wild type TSHR and mutant receptors in 24-well plates (7.5×10^4 cells per well) with 0.4 μg DNA/well using FuGENE™ 6 reagent (Roche) according to the manufacturer's protocol.
The M9 mutant is described in Jaschke et al., J Biol Chem 281:9841-9844. The Y7.42A mutant was introduced into hTSHR-pcDNA3.1 via the QuickChange XL Site-Directed Mutagenesis kit (Stratagene). The construct was verified by sequencing (MWG Biotech).
as §2, with “After removal of growth medium, cells were incubated for 1 hour in HBSS (Cellgro) with 10 mM HEPES (Cellgro) containing 1 mM 3-isobutyl-1-methylxanthine (IBMX) (Sigma) and the ligand of interest in a humidified 5% CO2 incubator at 37° C.” left out

TSHR [2] = target: T3, TSHR; assay: TsAb (Graves' disease sera)-stimulated cAMP accumulation in HEK-EM 293 cells expressing TSHR; assay type: cell-based; set-up: expressed in transfected cells
Procedure: as §2
To assess the therapeutic potential of compound 52 in patients with Graves' disease, its ability to inhibit TSHR activation by TsAbs was tested. First, four patient sera (GD 5, 19, 29, 30) were used at a dilution of 1:50 to test the effect of compound 52 on TsAb-stimulated cAMP accumulation in HEK-EM 293 cells expressing TSHR. All four sera increased cAMP accumulation, but to different extents (FIG. 6). To assess inhibition, cAMP accumulation was measured in response to TsAbs in the presence of 30 μM compound 52. Indeed, compound 52 reduced TsAb-mediated responses of the different sera (set at 100% for each patient's serum) by 28% to 79% (FIG. 6).

T3 sequence (P16473 21-764): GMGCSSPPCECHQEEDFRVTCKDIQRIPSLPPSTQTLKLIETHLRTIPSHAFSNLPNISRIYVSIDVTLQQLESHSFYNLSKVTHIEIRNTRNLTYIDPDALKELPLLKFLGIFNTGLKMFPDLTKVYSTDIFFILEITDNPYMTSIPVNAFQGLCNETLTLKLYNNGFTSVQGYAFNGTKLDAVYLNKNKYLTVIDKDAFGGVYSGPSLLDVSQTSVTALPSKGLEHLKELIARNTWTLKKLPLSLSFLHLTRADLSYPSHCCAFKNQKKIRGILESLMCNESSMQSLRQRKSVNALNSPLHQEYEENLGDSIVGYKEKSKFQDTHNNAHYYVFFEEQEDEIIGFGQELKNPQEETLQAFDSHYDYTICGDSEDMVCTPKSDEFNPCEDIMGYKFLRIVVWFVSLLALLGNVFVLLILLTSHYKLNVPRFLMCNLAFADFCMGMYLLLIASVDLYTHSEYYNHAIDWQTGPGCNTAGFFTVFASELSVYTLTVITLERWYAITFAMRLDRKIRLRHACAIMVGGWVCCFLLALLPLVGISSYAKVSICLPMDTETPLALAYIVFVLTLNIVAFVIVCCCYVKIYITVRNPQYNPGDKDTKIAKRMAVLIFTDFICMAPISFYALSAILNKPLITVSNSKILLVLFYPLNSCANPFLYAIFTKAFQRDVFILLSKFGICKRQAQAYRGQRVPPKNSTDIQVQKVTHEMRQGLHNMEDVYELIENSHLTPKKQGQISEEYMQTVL
T2 sequence (P16473 21-764): as above
T1 sequence (P22888 27-699): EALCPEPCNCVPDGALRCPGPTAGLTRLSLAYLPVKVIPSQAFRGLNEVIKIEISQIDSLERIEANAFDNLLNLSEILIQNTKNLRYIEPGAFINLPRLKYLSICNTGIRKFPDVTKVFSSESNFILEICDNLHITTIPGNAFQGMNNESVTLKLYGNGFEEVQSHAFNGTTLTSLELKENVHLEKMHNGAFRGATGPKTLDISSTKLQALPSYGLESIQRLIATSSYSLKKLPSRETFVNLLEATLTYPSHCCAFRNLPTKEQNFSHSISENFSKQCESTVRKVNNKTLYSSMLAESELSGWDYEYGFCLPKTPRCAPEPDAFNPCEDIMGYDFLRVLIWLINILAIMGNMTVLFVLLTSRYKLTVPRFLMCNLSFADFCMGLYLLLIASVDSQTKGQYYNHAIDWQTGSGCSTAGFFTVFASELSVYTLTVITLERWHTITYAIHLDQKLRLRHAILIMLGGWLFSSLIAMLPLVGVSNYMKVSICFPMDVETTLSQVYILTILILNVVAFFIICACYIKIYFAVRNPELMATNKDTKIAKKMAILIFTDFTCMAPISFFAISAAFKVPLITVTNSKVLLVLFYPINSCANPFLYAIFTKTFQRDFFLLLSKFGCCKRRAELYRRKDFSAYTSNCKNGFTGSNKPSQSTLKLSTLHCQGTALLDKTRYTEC
Chain of LHCG receptor (P30730 27-700): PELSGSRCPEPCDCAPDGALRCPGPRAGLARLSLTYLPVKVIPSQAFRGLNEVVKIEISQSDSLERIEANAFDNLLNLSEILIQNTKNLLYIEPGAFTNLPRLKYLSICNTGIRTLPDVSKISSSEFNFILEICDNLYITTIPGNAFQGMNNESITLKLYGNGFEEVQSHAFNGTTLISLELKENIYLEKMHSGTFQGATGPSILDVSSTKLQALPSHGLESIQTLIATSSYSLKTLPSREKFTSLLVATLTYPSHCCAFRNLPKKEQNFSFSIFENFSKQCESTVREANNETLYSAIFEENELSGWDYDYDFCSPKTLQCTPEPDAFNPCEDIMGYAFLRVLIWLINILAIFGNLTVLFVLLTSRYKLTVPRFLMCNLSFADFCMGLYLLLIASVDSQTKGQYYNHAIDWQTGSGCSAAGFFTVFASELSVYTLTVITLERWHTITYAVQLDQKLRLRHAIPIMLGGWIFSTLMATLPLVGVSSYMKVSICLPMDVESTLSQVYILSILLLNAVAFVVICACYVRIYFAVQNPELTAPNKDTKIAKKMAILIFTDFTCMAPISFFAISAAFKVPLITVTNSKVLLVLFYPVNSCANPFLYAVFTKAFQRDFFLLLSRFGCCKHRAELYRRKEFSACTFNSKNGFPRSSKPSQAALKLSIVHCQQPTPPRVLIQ

Row | % Max. Resp. @ LHCGR in μM (human LHCG receptor; % of maximum response of LHCGR to LH (1000 ng/ml)) [%] | EC50 (human LHCG receptor; read-out: EC50 (LHCGR) in μM [95% C.I.], cAMP, HEK EM 293 cells, dose response 0-100 μM compound) [µM] | partial agonism, % of TSH activity at TSHR (human TSH receptor) [%] | % Max. Resp. @ TSHR in μM (human TSH receptor; % of maximum response of TSHR to TSH (100 mU/ml), * estimated maximum response at 100 μM compound) [%] | agonist activity at TSHR (human TSH receptor; cAMP) | EC50 (human TSH receptor; read-out: EC50 (TSHR) in μm [95% C.I.], cAMP, HEK EM 293 cells, dose response 0-100 μM compound, ** estimated EC50, no plateau) [µM] | inhibition of TSH stimulation of TSH receptor signaling (TSHR [1]) [%] | IC50 (TSHR [1]; with EC50 dose of TSH) [µM] | inhibition of TSH receptor activation by antibodies (IgG) from Graves' disease sera (TSHR [2]) | Compound | in vivo efficacy for LHCG receptor (LHCG receptor) | agonism at M9 (TSHR mutant M9)
1 | 45.8 ± 5.9 | 0.3 | 23 | 23.4 ± 3.6 | partial agonist | 6.5 | 35 | 11 |  | COc1cccc(-c2nc(SC)nc3sc(C(=O)NC(C)(C)C)c(N)c23)c1 [Compound 3, N-tert-butyl-5-amino-4-(3-methoxyphenyl)-2-(methylthio)thieno[2,3-d]pyrimidine-6-carboxamide, reference compound] | demonstrated | full agonist
2 |  |  |  |  |  |  |  |  | inhibit | CC/C=C/c1ccc(-c2nc(SC)nc3sc(C(=O)NC(C)(C)C)c(N)c23)cc1 [N-tert-butyl-5-amino-4-(4-((E)-but-1-enyl)phenyl)-2-(methylthio)thieno[2,3-d]pyrimidine-6-carboxamide] |  | 
